Test results published in PubChem BioAssay (NCI).
“And” between values parts separate entries of the source, which are not always exact repeats. Equal entries are not always repeated.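 Briefly, cells in 96-well plates were exposed to five compound concentrations for 48 h, and endpoints were estimated by linear interpolation. GI50: concentration for 50% inhibition of growth. TGI marks complete inhibition of growth.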 Where a SMILES comes first, the peptide text is derived from it. Bridges are numbered along the chain shown (N, C = ends). [ ]: non-standard residue; d: D form. ξ: configuration not given here. ξThr(3R) = C[C@@H](O)C(N)C(=O)O; S5 = C=CCCC[C@](C)(N)C(=O)O

System: MDA-MB-468 breast
Test: NCI anticancer screen, dose series, 48 h

Row | SMILES | GI50 | TGI
1 | CC[C@]1(O)CC2CN(CCc3c([nH]c4ccccc34)[C@@](C(=O)OC)(c3cc4c(cc3OC)N(C=O)[C@H]3[C@@](O)(C(=O)OC)[C@H](OC(C)=O)[C@]5(CC)C=CCN6CC[C@]43[C@@H]65)C2)C1 (stereo partly drawn) | < 0.005 µM | > 28.5 µM
2 | CCOC(=O)/C(C#N)=C1\SS/C(=C(/C#N)C(=O)OCC)S1 | 15.6 µM | 33 µM
3 | CCCCCCCCCCCCCCCCCCOc1ccccc1CC(=O)OCC[N+](CC)(CC)CC | 0.904 µM | 2.15 µM
4 | COc1cc(/C=C/C(=O)N2CCC=CC2=O)cc(OC)c1OC | 1.73 µM | 4.7 µM
5 | CC(=O)N[C@H](C(=O)N[C@@H](CCCNC(=N)N)C(=O)N[C@@H](CCCCN)C(=O)N[C@@H](CCCNC(=N)N)C(=O)NC(C(=O)N[C@@H](CC(C)C)C(=O)N[C@@H](CCCNC(=N)N)C(=O)N[C@@]1(C)CCC/C=C\CCC[C@@](C)(C(=O)N[C@@H](CCCNC(=N)N)C(=O)N[C@@H](CCC(=O)O)C(=O)N[C@@H](CC(C)C)C(=O)N[C@H](C(=O)N[C@@H](CCC(=O)O)C(N)=O)C(C)C)NC(=O)[C@H](CCC(N)=O)NC(=O)[C@H](CC(C)C)NC(=O)[C@H](CC(C)C)NC1=O)[C@@H](C)O)C(C)C (stereo partly drawn) (Ac-VRKR[ξThr(3R)]LR[S5]LLQ[S5]RELVE-NH2; staple (Z) 8-12) | 7.65 µM | 18.4 µM
6 | COc1ccc2nc3cc([N+](=O)[O-])ccc3c(NNc3ccccc3)c2c1 | 0.616 µM | 5.37 µM
7 | CN1CCN(c2ccc(NC(=O)c3cncnc3Nc3ccc(OCc4cccc(F)c4)c(Cl)c3)cc2)CC1 | 1.71 µM | 8.75 µM
8 | c1ccc(-c2n(Cc3ccc4ccccc4c3)cc[n+]2Cc2ccc3ccccc3c2)cc1 | 0.245 µM | 1.18 µM
9 | CCOC(=O)c1c(NC(=O)c2ccccc2)sc2c3c(ccc12)OCN(C)C3 | 1.52 µM | 3.14 µM
10 | Nc1cc(C(F)(F)F)c(-c2cc(N3CCOCC3)nc(N3CCOCC3)n2)cn1 | 0.329 µM and 0.216 µM | 2.5 µM and 1.41 µM
11 | C=C1C(=O)O[C@H]2[C@H]1CC/C(Cn1cc(-c3cccc(Cl)c3)nn1)=C\CC[C@@]1(C)O[C@@H]21 | 0.569 µM | 2.14 µM
12 | Clc1ccc2ncc(-c3cccc(NC4CNC4)n3)n2c1 | 4.86 µM | 20.5 µM
13 | NC(Cc1c[nH]c2ccc(F)cc12)C(=O)O (stereo not drawn) | 649 µM | > 2500 µM
14 | Nc1nnnc2nc[nH]c12 | 0.369 µM | –
15 | O=C(Nc1ccc(-n2ccc3c(NC(=O)c4ccccc4)nccc32)cc1)Nc1cccc(C(F)(F)F)c1 | 2.47 µM | 10.5 µM
16 | OCc1ccc(N2CCc3cc(F)ccc3C2)cc1Cl | 0.0101 µM | < 0.0182 µM
17 | CCOc1ccc2c(c1)CN(Cc1ccc(Cl)cc1)CO2 | 16.3 µM | 34.9 µM
18 | COc1ccc(-c2[nH]nc(N)c2-c2cc(OC)c3c(c2)OCO3)cc1 | 1.86 µM | 6.28 µM
19 | NC(=O)CC1(O)C=C(Br)C(=O)C(Br)=C1 | 1.75 µM | 7.22 µM
20 | O=C(Nc1cccc(-n2cc(-c3ccncc3)c(-c3ccc(O)c(Cl)c3)n2)c1)c1cc(C(F)(F)F)cc(C(F)(F)F)c1 | 3.8 µM | 46 µM
21 | COc1ccccc1/C=C/C1=C(C)CCC(c2ccccc2OC)C1C (stereo not drawn) | 0.118 µM | > 100 µM
22 | O=C1c2ccccc2C(=O)c2c1ccc1c(=O)n(-c3ccccc3C(F)(F)F)nnc21 | 1.43 µM | 3.71 µM
